Measurements: patent US11566007B2, “Ras inhibitors” (Revolution Medicines, Inc., priority 2019, dated 2023)
Where “and” joins values, the source holds several entries; their conditions need not be identical. Identical values can stand only once.

Legend:
K-Ras G13C = K-Ras G13C (Homo sapiens (Human), UniProt P01116+P62937, G13C); assay: Ras-Raf (BRAF RBD) disruption / FRET / MOA assay, KRAS G13C; assay type: biochemical; settings: KRAS G13C; Ras-Raf disruption/FRET/MOA assay; read-out: IC50* KRAS G13C FRET data
Sequence of K-Ras G13C (P01116-2 other isoform, or with tags, fused parts or gaps G13C): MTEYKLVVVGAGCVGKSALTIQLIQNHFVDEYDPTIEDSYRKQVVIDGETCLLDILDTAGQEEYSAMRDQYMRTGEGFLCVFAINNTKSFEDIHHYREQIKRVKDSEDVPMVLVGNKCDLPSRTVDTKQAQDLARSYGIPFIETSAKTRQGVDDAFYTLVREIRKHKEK
Sequence of K-Ras G13C (P62937 whole entry): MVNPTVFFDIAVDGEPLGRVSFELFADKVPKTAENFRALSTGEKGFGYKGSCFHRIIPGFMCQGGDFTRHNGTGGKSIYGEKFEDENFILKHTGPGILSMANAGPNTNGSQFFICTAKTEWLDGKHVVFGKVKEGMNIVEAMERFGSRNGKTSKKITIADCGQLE
In short: (§1)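 Compound-driven ternary complex of nucleotide-loaded Ras with cyclophilin A, disrupting BRAF RBD binding. 10-point 3-fold dilution from 30 μM final, 3 h at 25° C, then anti-His Eu-W1024 (10 nM) and anti-GST allophycocyanin (50 nM) for 1.5 h. IC50 from TR-FRET ratio decrease versus DMSO.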

KRAS G12D = KRAS G12D (Homo sapiens (Human), UniProt P01116+P62937, G12D); assay: Ras-Raf (BRAF RBD) disruption / FRET / MOA assay, KRAS G12D; assay type: biochemical; settings: Ras-Raf disruption/FRET/MOA assay; class symbols; read-out: KRAS G12D FRET data IC50
Sequence of KRAS G12D (P01116-2 other isoform, or with tags, fused parts or gaps G12D): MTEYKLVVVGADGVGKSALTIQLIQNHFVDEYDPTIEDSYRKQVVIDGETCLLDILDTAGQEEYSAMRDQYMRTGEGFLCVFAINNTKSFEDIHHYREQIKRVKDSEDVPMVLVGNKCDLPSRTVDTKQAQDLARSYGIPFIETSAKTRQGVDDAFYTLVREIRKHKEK
Sequence of KRAS G12D (P62937 whole entry): as the sequence (P62937 whole entry) above
In short: as §1

[1] = tested on: NCI-H358 cells (K-Ras G12C); assay: Potency assay: pERK in NCI-H358 cells; assay type: cell-based, human; settings: Homo sapiens, NCI-H358; H358 KRAS G12C; read-out: pERK EC50
In short: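 4 h cpd, 37 °C; 10-pt 3-fold series, 10 mM DMSO top stock, duplicates. Readout pERK: AlphaLISA SureFire Ultra or In-Cell Western (IR-800CW secondary, DRAQ5 DNA stain). IC50, 4-PL fit vs log conc.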

KRAS G13D = KRAS G13D (Homo sapiens (Human), UniProt P01116+P62937, G13D); assay: Ras-Raf (BRAF RBD) disruption / FRET / MOA assay, KRAS G13D; assay type: biochemical; settings: read-out: IC50* KRAS G13D FRET data
Sequence of KRAS G13D (P01116-2 other isoform, or with tags, fused parts or gaps G13D): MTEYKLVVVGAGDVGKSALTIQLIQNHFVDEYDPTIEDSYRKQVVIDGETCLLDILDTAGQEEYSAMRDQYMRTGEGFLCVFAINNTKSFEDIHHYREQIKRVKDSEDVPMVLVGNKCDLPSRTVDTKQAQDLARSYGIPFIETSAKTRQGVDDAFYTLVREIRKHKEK
Sequence of KRAS G13D (P62937 whole entry, canonical isoform): as the sequence (P62937 whole entry) above
Description: The purpose of this biochemical assay is to measure the ability of test compounds to facilitate ternary complex formation between a nucleotide-loaded Ras isoform and cyclophilin A; the resulting ternary complex disrupts binding to a BRAF^RBD construct, inhibiting Ras signaling through a RAF effector.
(§2) Compound is present in plate wells as a 10-point 3-fold dilution series starting at a final concentration of 30 μM. After incubation at 25° C. for 3 hours, a mixture of Anti-His Eu-W1024 and anti-GST allophycocyanin is then added to assay sample wells at final concentrations of 10 nM and 50 nM, respectively, and the reaction incubated for an additional 1.5 hours. […] Compounds that facilitate disruption of a Ras:RAF complex are identified as those eliciting a decrease in the TR-FRET ratio relative to DMSO control wells.
This protocol may also be executed substituting other Ras proteins or nucleotides.
The purpose of this biochemical assay was to measure the ability of test compounds to facilitate ternary complex formation between a nucleotide-loaded K-Ras isoform and Cyclophilin A; the resulting ternary complex disrupts binding to a BRAF^RBD construct, inhibiting K-Ras signaling through a RAF effector. Data is reported as IC50 values.
as §2, with “Compound was” for “Compound is”, “allophycocyanin was” for “allophycocyanin is”, “a K-Ras:RAF” for “a Ras:RAF”, “complex were” for “complex are”

NRAS G12C = NRAS G12C (Homo sapiens (Human), UniProt P01111+P62937, G12C); assay: Ras-Raf (BRAF RBD) disruption / FRET / MOA assay, NRAS G12C; assay type: biochemical; settings: read-out: IC50* NRAS G12C FRET data
Sequence of NRAS G12C (P01111 whole entry G12C): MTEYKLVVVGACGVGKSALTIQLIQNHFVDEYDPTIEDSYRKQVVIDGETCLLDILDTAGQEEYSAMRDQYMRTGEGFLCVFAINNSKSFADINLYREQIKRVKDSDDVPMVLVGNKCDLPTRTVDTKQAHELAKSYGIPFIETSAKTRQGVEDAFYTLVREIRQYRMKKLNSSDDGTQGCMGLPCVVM
Sequence of NRAS G12C (P62937 whole entry): as the sequence (P62937 whole entry) above
In short: as §1

KRAS G12V = KRAS G12V (Homo sapiens (Human), UniProt P01116+P62937, G12V); assay: Ras-Raf (BRAF RBD) disruption / FRET / MOA assay, KRAS G12V; assay type: biochemical; settings: read-out: IC50* KRAS G12V FRET data
Sequence of KRAS G12V (P01116-2 other isoform, or with tags, fused parts or gaps G12V): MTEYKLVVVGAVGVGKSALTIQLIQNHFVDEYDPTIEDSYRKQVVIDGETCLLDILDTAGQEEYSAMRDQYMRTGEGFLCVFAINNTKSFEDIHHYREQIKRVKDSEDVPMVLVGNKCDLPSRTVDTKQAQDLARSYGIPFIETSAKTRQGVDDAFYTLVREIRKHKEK
Sequence of KRAS G12V (P62937 whole entry): as the sequence (P62937 whole entry) above
In short: as §1

KRAS WT = KRAS WT (Homo sapiens (Human), UniProt P01116+P62937); assay: Ras-Raf (BRAF RBD) disruption / FRET / MOA assay, KRAS WT; assay type: biochemical; settings: read-out: IC50* KRAS WT FRET data
Sequence of KRAS WT (P01116-2 other isoform, or with tags, fused parts or gaps): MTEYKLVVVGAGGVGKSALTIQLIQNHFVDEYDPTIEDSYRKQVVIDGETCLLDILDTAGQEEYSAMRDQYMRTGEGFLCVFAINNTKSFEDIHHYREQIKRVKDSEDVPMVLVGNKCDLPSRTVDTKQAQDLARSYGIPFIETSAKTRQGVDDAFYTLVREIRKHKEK
Sequence of KRAS WT (P62937 whole entry): as the sequence (P62937 whole entry) above
In short: as §1

K-Ras G12C = K-Ras G12C (Homo sapiens (Human), UniProt P01116+P62937, G12C); assay: Ras-Raf (BRAF RBD) disruption / FRET / MOA assay, KRAS G12C; assay type: biochemical; settings: KRAS G12C; Ras-Raf disruption/FRET/MOA assay; read-out: IC50* KRAS G12C FRET data
Sequence of K-Ras G12C (P01116-2 other isoform, or with tags, fused parts or gaps G12C): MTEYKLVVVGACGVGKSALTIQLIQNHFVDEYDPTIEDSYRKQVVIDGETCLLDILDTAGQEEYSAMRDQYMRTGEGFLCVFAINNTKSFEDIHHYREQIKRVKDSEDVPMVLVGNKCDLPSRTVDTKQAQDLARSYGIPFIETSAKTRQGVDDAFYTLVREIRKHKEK
Sequence of K-Ras G12C (P62937 whole entry): as the sequence (P62937 whole entry) above
In short: as §1

KRAS G12S = KRAS G12S (Homo sapiens (Human), UniProt P01116+P62937, G12S); assay: Ras-Raf (BRAF RBD) disruption / FRET / MOA assay, KRAS G12S; assay type: biochemical; settings: Ras-Raf disruption/FRET/MOA assay; class symbols; read-out: KRAS G12S FRET data IC50
Sequence of KRAS G12S (P01116-2 other isoform, or with tags, fused parts or gaps G12S): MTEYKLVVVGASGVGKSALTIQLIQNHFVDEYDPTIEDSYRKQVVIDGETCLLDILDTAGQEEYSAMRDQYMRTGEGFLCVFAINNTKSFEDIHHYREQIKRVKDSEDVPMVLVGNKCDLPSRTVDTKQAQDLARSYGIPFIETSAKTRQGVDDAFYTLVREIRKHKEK
Sequence of KRAS G12S (P62937 whole entry): as the sequence (P62937 whole entry) above
In short: as §1

Structure (SMILES)	IC50 (K-Ras G13C)	IC50 (KRAS G12D)	EC50 [1] [nM]	IC50 (KRAS G13D)	IC50 (NRAS G12C)	IC50 (KRAS G12V)	IC50 (KRAS WT)	IC50 (K-Ras G12C)	IC50 (KRAS G12S)
CCn1c(-c2cccnc2COC)c2c3cc(ccc31)-c1cc(O)cc(c1)C[C@H](NC(=O)[C@H](C(C)C)N(C)C(=O)[C@H]1CCN(C(=O)C#C[C@@H]3CCCN3C)C1)C(=O)N1CCC[C@H](N1)C(=O)OCC(C)(C)C2 [Example A196]	10 to 100 nM and 100 to 1000 nM	1000 to 10000 nM and > 10000 nM	< 5000	100 to 1000 nM and > 10000 nM	10 to 100 nM and < 10 nM	100 to 1000 nM and > 10000 nM	1000 to 10000 nM and > 10000 nM	10 to 100 nM and < 10 nM	100 to 1000 nM and > 10000 nM
CCn1c(-c2cccnc2COC)c2c3cc(ccc31)-c1cc(O)cc(c1)C[C@H](NC(=O)[C@H](C(C)C)N(C)C(=O)[C@H]1CCN(C(=O)C#CCN3[C@@H](C)COC[C@@H]3C)C1)C(=O)N1CCC[C@H](N1)C(=O)OCC(C)(C)C2 [Example A209]	100 to 1000 nM and > 10000 nM	> 10000 nM	< 5000	1000 to 10000 nM and > 10000 nM	100 to 1000 nM and < 10 nM	100 to 1000 nM and > 10000 nM	1000 to 10000 nM and > 10000 nM	10 to 100 nM and < 10 nM	1000 to 10000 nM and > 10000 nM
C=CC(=O)C1C[C@@H](C(=O)N(C)[C@H](C(=O)N[C@H]2Cc3cc(O)cc(c3)-c3ccc4c(c3)c(c(-c3ccc5c(c3)CN(C)C5)n4CC)CC(C)(C)COC(=O)[C@@H]3CCCN(N3)C2=O)C(C)C)CN1 (stereo partly drawn) [Example A212]	1000 to 10000 nM and > 10000 nM	> 10000 nM	< 5000	1000 to 10000 nM and > 10000 nM	100 to 1000 nM and 1000 to 10000 nM	1000 to 10000 nM and > 10000 nM	1000 to 10000 nM and > 10000 nM	100 to 1000 nM and 1000 to 10000 nM	1000 to 10000 nM and > 10000 nM
C=CC(=O)C1C[C@@H](C(=O)N(C)[C@H](C(=O)N[C@H]2Cc3cc(O)cc(c3)-c3ccc4c(c3)c(c(-c3ccccc3CCOC)n4CC)CC(C)(C)COC(=O)[C@@H]3CCCN(N3)C2=O)C(C)C)[C@@H](OC)N1 (stereo partly drawn) [Example A214]	1 µM to 10 µM (3×) and > 10 µM	> 10000 nM	< 5000	> 10000 nM	100 nM to 1 µM and > 10 µM (2×)	> 10000 nM	1000 to 10000 nM	10 nM to 100 nM (2×) and 1 µM to 10 µM (2×)	1 µM to 10 µM (2×) and > 10 µM (2×)
CCn1c(-c2ccccc2CCOC)c2c3cc(ccc31)-c1cc(O)cc(c1)C[C@H](NC(=O)[C@H](C(C)C)N(C)C(=O)c1ccc(NC(=O)/C=C/CN(C)C)cc1)C(=O)N1CCC[C@H](N1)C(=O)OCC(C)(C)C2 [Example A225]	1 µM to 10 µM (3×) and > 10 µM	> 10000 nM	< 5000	> 10000 nM	100 nM to 1 µM and > 10 µM (2×)	> 10000 nM	1000 to 10000 nM	10 nM to 100 nM (2×) and 1 µM to 10 µM (2×)	1 µM to 10 µM (2×) and > 10 µM (2×)
CCn1c(-c2cccnc2COC)c2c3cc(ccc31)-c1cc(O)cc(c1)C[C@H](NC(=O)[C@H](C(C)C)N(C)C(=O)[C@H]1CCN(C(=O)C#CC3(N(C)C)COC3)C1)C(=O)N1CCC[C@H](N1)C(=O)OCC(C)(C)C2 [Example A241]	100 to 1000 nM	1000 to 10000 nM and > 10000 nM	< 5000	1000 to 10000 nM	10 to 100 nM	100 to 1000 nM and 1000 to 10000 nM	1000 to 10000 nM	10 to 100 nM	100 to 1000 nM and 1000 to 10000 nM
CO[C@@H](C)c1ncccc1-c1c2c3cc(ccc3n1CC(F)(F)F)-c1nnc(o1)C[C@H](NC(=O)[C@H](C(C)C)N(C)C(=O)[C@H]1CCN(C(=O)C#CC(C)(C)N3CCC3)C1)C(=O)N1CCC[C@H](N1)C(=O)OCC(C)(C)C2 [Example A423]	100 to 1000 nM	> 10000 nM	< 5000	> 10000 nM	10 to 100 nM	1000 to 10000 nM	1000 to 10000 nM	10 to 100 nM	1000 to 10000 nM
